The IC50 is the point on the concentration scale where inhibition reaches its midpoint.

Consider one molecule from patent EP3733277B1, “PATTERNED SUBSTRATE HAVING HYDROPHILIC AND HYDROPHOBIC AREAS” (Karlsruher Institut für Technologie (KIT), priority 2019, dated 2020).

This assay deals with Jurkat cells. The experiment in a line: Dose-response of doxorubicin on Jurkat cells cultured on droplet microarrays (DMA) with different surfaces or in microtiter plates; viability by Calcein AM / Propidium Iodide staining. It is filed as cell-based. To be noted: Homo sapiens. The protocol: Jurkat cells were treated with anti-cancer drug doxorubicin on DMAs containing different surfaces and coatings ((1) non-polymer surface with gelatine coating, (2) non-polymer surface without coating, (3) polymer surface with gelatine coating, which is necessary for culturing of cells on polymer, but not on non-polymer surface). Cells were cultured in 100 nL droplets volume and 100 cells per droplet on 1 mm square hydrophilic spots. Cells were incubated with drug for 24 hours. Afterwards cells were stained with Calcein AM (stains live cells) and Propidium Iodide (stains dead cells) to estimate viability of cells. DMAs were imaged using Olympus IX microscope. Image analysis was performed in Imaged software.
IC50 values were calculated in Origin software by fitting the dose-response curves shown in (a).

For the molecule `COc1cccc2c1C(=O)c1c(O)c3c(c(O)c1C2=O)C[C@@](O)(C(=O)CO)C[C@@H]3O[C@H]1C[C@H](N)[C@H](O)[C@H](C)O1` [doxorubicin], the IC50 is, setting by setting: (24 h, Surface: Non-polymer DMA (without coating), 100 nL droplets, 100 cells per droplet, 24 hours) 0.19 µM; (24 h, Surface: Non-polymer DMA / gelatin, 100 nL droplets, 100 cells per droplet, 24 hours) 35.2 µM; (24 h, Surface: Polymer DMA / gelatin (HEMA-EDMA polymer), 100 nL droplets, 100 cells per droplet, 24 hours) 203 µM; (Surface: Microtiter plate) 0.2 µM.
